Test results taken from patent publication US20130165396A1, “Apple Skin Extracts for Treating Cardiovascular Disease” (NATIONAL RESEARCH COUNCIL OF CANADA, priority 2010, published 2013).
Marks after values point to notes of the source that are not given here.

Assays:
[1] = system: LDL isolated from human plasma; assay: TBARS assay, Cu2+-induced LDL oxidation; assay type: biochemical
Method: (§1) To remove the inherent antioxidants, purchased LDL was dialyzed using Fisherbrand cellulose dialysis tubing (type T3 membrane, Thermo Fisher Scientific Inc., Ottawa, ON, Canada) against PBS containing 0.138 M NaCl and 0.0027 M KCl (pH 7.4, at 25° C.) at 4° C. for 24 hours. The buffer was changed every six hours. The dialyzed LDL was immediately used or stored at −80° C. in the dark under nitrogen and used within two to three weeks. Protein content of the dialyzed LDL was measured by the Lowry's method (Lowry et al., J. Biol. Chem., 1951, 193: […]) using bovine serum albumin as the standard.
(§2) Two oxidation induction methods were used: copper sulfate and 2,2′-azobis(2-methylpropionamidine)dihydrochloride (AAPH). For both induction systems, 100 μg/mL of final LDL protein concentration was used. LDL was oxidized at the presence of 10 μM final concentration of Cu^2+and 5 mM final concentration of AAPH separately at 37° C. for 4 h in the dark. […] Oxidation was terminated by adding a 1:1 mixture of 1 mM solution of ethylenediaminetetraacetic acid (EDTA) and 1 mM solution of butylated hydroxytoluene (BHT).
(§3) Two main constituents of TAE and oleanolic acid, which is an isomer of ursolic acid, were also used to investigate the concentration-responsiveness. The same concentrations of Cu^2+ and AAPH were used and the oxidation was terminated by a 1:1 mixture of EDTA and BHT as explained earlier under this section.
(§4) TBARS were measured according to the method of Xu et al., J. Food Sci., 2007, 72: S522-S527 with slight modifications. […] The mixture was incubated at 95° C. for 30 min to develop a pink chromogen. After cooling to room temperature tubes were centrifuged at 1500 g for 15 min and the fluorescence was measured using the FLUOstar OPTIMA plate reader (BMG Labtech Inc. Canada). Excitation and emission wavelengths used were 532 and 590 nm, respectively. TBARS activity was expressed as the percent inhibition (Equation 1) of LDL oxidation with comparison to the positive control, where F is fluorescence:
(§5) Percent inhibition (%)=100(Fpositive control−Fsample)/(Fpositive control) (1)

[2] = system: LDL isolated from human plasma; assay: TBARS assay, AAPH-induced LDL oxidation; assay type: biochemical
Method: as §1, §2, §3, §4, §5

[3] = 50 mg L^−1, comparison of constituent compounds and metabolites (Table 4)

Compound	Percent inhibition of secondary LDL oxidation products, Cu induction [1, 3]	Percent inhibition of secondary LDL oxidation products, AAPH induction [2, 3]	Percent inhibition of secondary LDL oxidation products, Cu induction ([1]; 1 mg L^−1)	Percent inhibition of secondary LDL oxidation products, Cu induction ([1]; 10 mg L^−1)	Percent inhibition of secondary LDL oxidation products, Cu induction ([1]; 50 mg L^−1)	Percent inhibition of secondary LDL oxidation products, Cu induction ([1]; 100 mg L^−1)	Percent inhibition of secondary LDL oxidation products, Cu induction ([1]; 200 mg L^−1)	Percent inhibition of secondary LDL oxidation products, Cu induction ([1]; 300 mg L^−1)	Percent inhibition of secondary LDL oxidation products, Cu induction ([1]; 400 mg L^−1)	Percent inhibition of secondary LDL oxidation products, Cu induction ([1]; 500 mg L^−1)	Percent inhibition of secondary LDL oxidation products, AAPH induction ([2]; 1 mg L^−1)	Percent inhibition of secondary LDL oxidation products, AAPH induction ([2]; 10 mg L^−1)	Percent inhibition of secondary LDL oxidation products, AAPH induction ([2]; 50 mg L^−1)	Percent inhibition of secondary LDL oxidation products, AAPH induction ([2]; 100 mg L^−1)	Percent inhibition of secondary LDL oxidation products, AAPH induction ([2]; 200 mg L^−1)	Percent inhibition of secondary LDL oxidation products, AAPH induction ([2]; 300 mg L^−1)	Percent inhibition of secondary LDL oxidation products, AAPH induction ([2]; 400 mg L^−1)	Percent inhibition of secondary LDL oxidation products, AAPH induction ([2]; 500 mg L^−1)	other results
O=C(/C=C/c1ccc(O)c(O)c1)O[C@@H]1C[C@](O)(C(=O)O)C[C@@H](O)[C@H]1O [Chlorogenic acid]	126.30 ± 1.45^a %	100.18 ± 3.29^b %																	
C[C@H]1[C@H](C)CC[C@]2(C(=O)O)CC[C@]3(C)C(=CC[C@@H]4[C@@]5(C)C[C@@H](O)[C@H](O)C(C)(C)[C@@H]5CC[C@]43C)[C@H]12 [Corosolic acid]			−17.84 ± 5.15^ab %	3.17 ± 4.20^a %	−6.04 ± 3.62^ab %	−24.94 ± 2.90^be %	−54.17 ± 5.21^d %	−49.93 ± 3.74^d %	−39.57 ± 3.91^cd %	−0.50 ± 5.98^a %	6.09 ± 1.83^d %	5.69 ± 1.46^d %	32.80 ± 5.49^bc %	29.84 ± 2.89^c %	45.49 ± 3.46^ab %	47.55 ± 1.17^a %	51.18 ± 1.73^a %	46.63 ± 3.91^a %	Protection against Cu2+-induced LDL oxidation (statement) [1]: did not show any protection; AAPH-induced LDL oxidation inhibition ([2]; greater than 200 mg L^−1): more than 40%
OC[C@H]1O[C@@H](Oc2cc3c(O)cc(O)cc3[o+]c2-c2ccc(O)c(O)c2)[C@H](O)[C@@H](O)[C@H]1O [Cyanidin-3-O-galactoside]	104.31 ± 2.25^ab %	70.43 ± 1.23^d %																	Cu2+-induced LDL oxidation (statement) ([1]; 50 mg L^−1): promising results
COc1cc(-c2oc3cc(O)cc(O)c3c(=O)c2OC2OC(C(=O)O)C(O)C(O)C2O)ccc1O (stereo not drawn) [Isorhamnetin-3-glucuronic acid]	20.28 ± 1.49^e %	51.79 ± 1.27^e %																	
CC1(C)CC[C@]2(C(=O)O)CC[C@]3(C)C(=CC[C@@H]4[C@@]5(C)CC[C@H](O)C(C)(C)[C@@H]5CC[C@]43C)[C@@H]2C1 [Oleanolic acid]			12.06 ± 2.46^a %	−3.01 ± 3.42^ab %	12.30 ± 2.73^a %	−13.37 ± 5.59^b %	−47.00 ± 3.05^c %	−94.49 ± 4.34^d %	−74.73 ± 5.82^d %	−78.32 ± 4.31^d %	17.57 ± 8.28^b %	31.90 ± 0.95^ab %	37.43 ± 1.98^a %	30.69 ± 3.22^ab %	16.75 ± 4.41^b %	26.13 ± 3.09^ab %	26.20 ± 4.41^ab %	29.17 ± 1.58^ab %	Protection for AAPH-induced LDL oxidation ([2]; 10-100 mg L^−1): around 30%
O=c1c(O[C@@H]2O[C@H](CO)[C@@H](O)[C@H](O)[C@H]2O)c(-c2ccc(O)c(O)c2)oc2cc(O)cc(O)c12 [Quercetin-3-O-glucoside]	104.13 ± 0.48^ab %	138.25 ± 1.97^a %																	
O=c1c(O)c(-c2ccc(O)c(OS(=O)(=O)O)c2)oc2cc(O)cc(O)c12 [Quercetin-3′-sulfate]	38.11 ± 1.84^de %	59.63 ± 1.90^e %																	
C[C@H]1[C@H](C)CC[C@]2(C(=O)O)CC[C@]3(C)C(=CC[C@@H]4[C@@]5(C)CC[C@H](O)C(C)(C)[C@@H]5CC[C@]43C)[C@H]12 [Ursolic acid]			7.10 ± 1.52^c %	−5.10 ± 0.69^d %	19.08 ± 2.59^c %	16.73 ± 1.49^c %	36.62 ± 5.69^a %	34.93 ± 5.08^ab %	42.45 ± 1.02^a %	39.63 ± 3.85^a %	−16.71 ± 1.72^d %	−16.51 ± 2.32^d %	24.25 ± 2.54^c %	54.07 ± 2.88^b %	49.91 ± 3.26^b %	71.45 ± 5.14^a %	54.20 ± 2.50^b %	46.52 ± 2.39^b %	Protection against Cu2+-induced LDL oxidation (statement) [1]: a certain degree of protection; Concentration giving a greater protection against AAPH-induced LDL oxidation [2]: 300 mg/L; Inhibiting peroxyl-radical-induced LDL oxidation compared to corosolic and oleanolic acids (statement) [2]: more effective; Protection for AAPH-induced LDL oxidation ([2]; beyond 100 mg L^−1): more than 40%
